Target: Phospholipid-transporting ATPase ABCA1 (Mus musculus, UniProt P41233)
Assay: Induction of ABCA1-mediated [3H]cholesterol efflux in mouse RAW 264.7 macrophages after 24 hrs

Sequence of Phospholipid-transporting ATPase ABCA1 (P41233 whole entry): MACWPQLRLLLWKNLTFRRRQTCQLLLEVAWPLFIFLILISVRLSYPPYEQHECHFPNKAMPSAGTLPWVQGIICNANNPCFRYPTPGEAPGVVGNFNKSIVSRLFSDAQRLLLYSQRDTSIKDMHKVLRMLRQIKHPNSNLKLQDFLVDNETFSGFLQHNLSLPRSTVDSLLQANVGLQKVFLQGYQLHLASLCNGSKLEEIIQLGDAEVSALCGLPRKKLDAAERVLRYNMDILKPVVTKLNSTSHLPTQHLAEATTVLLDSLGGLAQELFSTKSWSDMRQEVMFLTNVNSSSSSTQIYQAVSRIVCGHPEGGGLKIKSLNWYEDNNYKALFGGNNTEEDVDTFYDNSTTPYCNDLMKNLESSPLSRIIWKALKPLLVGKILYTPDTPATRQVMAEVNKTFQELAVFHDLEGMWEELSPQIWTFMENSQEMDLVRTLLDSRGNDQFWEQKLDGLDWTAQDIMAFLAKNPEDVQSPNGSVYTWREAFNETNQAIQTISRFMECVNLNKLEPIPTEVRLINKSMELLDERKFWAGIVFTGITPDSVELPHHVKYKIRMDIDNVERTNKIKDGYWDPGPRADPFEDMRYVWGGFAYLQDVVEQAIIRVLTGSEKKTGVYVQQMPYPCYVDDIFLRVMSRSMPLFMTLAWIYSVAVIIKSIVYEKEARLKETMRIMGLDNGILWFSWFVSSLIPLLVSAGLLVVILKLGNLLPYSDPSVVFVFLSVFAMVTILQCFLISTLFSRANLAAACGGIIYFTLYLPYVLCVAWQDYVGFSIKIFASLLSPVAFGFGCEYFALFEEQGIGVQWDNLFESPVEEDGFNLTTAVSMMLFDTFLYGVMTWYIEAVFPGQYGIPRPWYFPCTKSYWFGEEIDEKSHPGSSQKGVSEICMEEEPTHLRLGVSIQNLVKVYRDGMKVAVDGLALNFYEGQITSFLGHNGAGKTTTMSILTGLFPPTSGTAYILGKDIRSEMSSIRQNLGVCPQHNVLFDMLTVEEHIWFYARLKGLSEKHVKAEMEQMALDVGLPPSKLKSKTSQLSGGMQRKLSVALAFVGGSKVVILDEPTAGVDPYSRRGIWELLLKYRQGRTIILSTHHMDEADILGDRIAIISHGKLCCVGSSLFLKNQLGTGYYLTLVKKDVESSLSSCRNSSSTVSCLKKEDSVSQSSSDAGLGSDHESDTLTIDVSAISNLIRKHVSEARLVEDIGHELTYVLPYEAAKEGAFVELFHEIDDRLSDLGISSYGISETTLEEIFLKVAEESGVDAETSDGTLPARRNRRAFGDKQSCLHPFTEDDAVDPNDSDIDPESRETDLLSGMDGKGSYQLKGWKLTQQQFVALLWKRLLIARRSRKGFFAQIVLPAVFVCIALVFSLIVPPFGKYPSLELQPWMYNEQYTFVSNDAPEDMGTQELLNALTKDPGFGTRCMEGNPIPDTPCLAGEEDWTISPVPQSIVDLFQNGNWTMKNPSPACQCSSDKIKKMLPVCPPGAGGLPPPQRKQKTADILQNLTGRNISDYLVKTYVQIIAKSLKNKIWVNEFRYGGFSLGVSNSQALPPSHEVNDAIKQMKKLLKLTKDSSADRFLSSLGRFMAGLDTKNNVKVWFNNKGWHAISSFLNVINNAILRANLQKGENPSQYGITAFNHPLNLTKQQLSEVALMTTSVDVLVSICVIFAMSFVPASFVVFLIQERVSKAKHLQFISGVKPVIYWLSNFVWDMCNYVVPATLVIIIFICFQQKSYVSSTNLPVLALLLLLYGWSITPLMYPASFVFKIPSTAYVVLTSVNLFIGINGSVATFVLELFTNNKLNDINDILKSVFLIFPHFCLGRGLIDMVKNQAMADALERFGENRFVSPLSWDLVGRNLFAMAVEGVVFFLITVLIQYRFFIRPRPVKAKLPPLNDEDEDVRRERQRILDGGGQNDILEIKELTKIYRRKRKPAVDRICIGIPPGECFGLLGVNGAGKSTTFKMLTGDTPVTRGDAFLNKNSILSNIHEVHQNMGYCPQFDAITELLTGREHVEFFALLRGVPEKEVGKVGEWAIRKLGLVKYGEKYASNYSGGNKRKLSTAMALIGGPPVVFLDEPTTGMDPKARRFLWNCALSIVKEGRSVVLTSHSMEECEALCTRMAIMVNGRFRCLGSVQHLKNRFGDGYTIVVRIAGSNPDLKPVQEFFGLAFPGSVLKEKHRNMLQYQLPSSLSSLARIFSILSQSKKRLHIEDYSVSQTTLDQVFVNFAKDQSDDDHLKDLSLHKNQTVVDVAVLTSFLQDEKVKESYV

| EC50 [µM] | SMILES |
| --- | --- |
| > 100 | C=CCCCC[C@@H](NC(=O)[C@H](CCC(=O)O)NC(=O)[C@H](CCC(=O)O)NC(=O)[C@H](CC(N)=O)NC(=O)[C@H](CC(C)C)NC(=O)[C@H](CCCCN)NC(=O)[C@H](CCC(=O)O)NC(=O)[C@H](CCCN=C(N)N)NC(=O)[C@H](Cc1ccccc1)NC(=O)[C@H](CCC(=O)O)NC(=O)[C@H](CC(=O)O)NC(=O)[C@H](CC(C)C)NC(=O)[C@@H](NC(=O)[C@@H]1CCCN1C(C)=O)C(C)C)C(=O)N[C@@H](CCC(=O)O)C(=O)N[C@@H](C)C(=O)N[C@@H](CC(C)C)C(=O)N[C@@H](CCCCN)C(=O)N[C@@H](CCC(N)=O)C(=O)N[C@@H](CCCCN)C(=O)N[C@@H](CC(C)C)C(=O)N[C@@H](CCCCN)C(N)=O |
| > 100 | C=CCCCC[C@@H](NC(=O)[C@H](C)NC(=O)[C@H](CCC(=O)O)NC(=O)[C@H](CC(C)C)NC(=O)[C@H](CCC(=O)O)NC(=O)[C@H](CCC(=O)O)NC(=O)[C@H](CC(N)=O)NC(=O)[C@H](CC(C)C)NC(=O)[C@H](CCCCN)NC(=O)[C@H](CCC(=O)O)NC(=O)[C@H](CCCNC(=N)N)NC(=O)[C@H](Cc1ccccc1)NC(=O)[C@H](CCC(=O)O)NC(=O)[C@H](CC(=O)O)NC(=O)[C@H](CC(C)C)NC(=O)[C@@H](NC(=O)[C@@H]1CCCN1C(C)=O)C(C)C)C(=O)N[C@@H](CCCCN)C(=O)N[C@@H](CCC(N)=O)C(=O)N[C@@H](CCCCN)C(=O)N[C@@H](CC(C)C)C(=O)N[C@@H](CCCCN)C(N)=O |
| > 100 | C=CCCCC[C@@H](NC(=O)[C@H](CCC(N)=O)NC(=O)[C@H](CCCCN)NC(=O)[C@H](CC(C)C)NC(=O)[C@H](C)NC(=O)[C@H](CCC(=O)O)NC(=O)[C@H](CC(C)C)NC(=O)[C@H](CCC(=O)O)NC(=O)[C@H](CCC(=O)O)NC(=O)[C@H](CC(N)=O)NC(=O)[C@H](CC(C)C)NC(=O)[C@H](CCCCN)NC(=O)[C@H](CCC(=O)O)NC(=O)[C@H](CCCNC(=N)N)NC(=O)[C@H](Cc1ccccc1)NC(=O)[C@H](CCC(=O)O)NC(=O)[C@H](CC(=O)O)NC(=O)[C@H](CC(C)C)NC(=O)[C@@H](NC(=O)[C@@H]1CCCN1C(C)=O)C(C)C)C(=O)N[C@@H](CC(C)C)C(=O)N[C@@H](CCCCN)C(N)=O |
| > 100 | C=CCCCC[C@@H](NC(=O)[C@H](CCCCN)NC(=O)[C@H](CCC(N)=O)NC(=O)[C@H](CCCCN)NC(=O)[C@H](CC(C)C)NC(=O)[C@H](C)NC(=O)[C@H](CCC(=O)O)NC(=O)[C@H](CC(C)C)NC(=O)[C@H](CCC(=O)O)NC(=O)[C@H](CCC(=O)O)NC(=O)[C@H](CC(N)=O)NC(=O)[C@H](CC(C)C)NC(=O)[C@H](CCCCN)NC(=O)[C@H](CCC(=O)O)NC(=O)[C@H](CCCNC(=N)N)NC(=O)[C@H](Cc1ccccc1)NC(=O)[C@H](CCC(=O)O)NC(=O)[C@H](CC(=O)O)NC(=O)[C@H](CC(C)C)NC(=O)[C@@H](NC(=O)[C@@H]1CCCN1C(C)=O)C(C)C)C(=O)N[C@@H](CCCCN)C(N)=O |
| > 100 | C=CCCC[C@@H](NC(=O)[C@H](CCC(=O)O)NC(=O)[C@H](CC(=O)O)NC(=O)[C@H](CC(C)C)NC(=O)[C@@H](NC(=O)[C@@H]1CCCN1C(C)=O)C(C)C)C(=O)N[C@@H](CCCNC(=N)N)C(=O)N[C@@H](CCC(=O)O)C(=O)N[C@@H](CCCCN)C(=O)N[C@@H](CC(C)C)C(=O)N[C@@H](CC(N)=O)C(=O)N[C@@H](CCC(=O)O)C(=O)N[C@@H](CCC(=O)O)C(=O)N[C@@H](CC(C)C)C(=O)N[C@@H](CCC(=O)O)C(=O)N[C@@H](C)C(=O)N[C@@H](CC(C)C)C(=O)N[C@@H](CCCCN)C(=O)N[C@@H](CCC(N)=O)C(=O)N[C@@H](CCCCN)C(=O)N[C@@H](CC(C)C)C(=O)N[C@@H](CCCCN)C(N)=O |

Source: ChEMBL document CHEMBL1629456, “ApoA-I mimetic peptides promote pre-β HDL formation in vivo causing remodeling of HDL and triglyceride accumulation at higher dose” (Bioorg Med Chem, 2010)
